Data: US10927105B1 (Lundbeck La Jolla Research Center, Inc., priority 2017, dated 2021)

Tests used:
[1] = biological target: MAGL (Homo sapiens (Human), UniProt Q99685); assay: In vitro competitive activity-based protein profiling (human prefrontal cortex membrane fractions, FP-Rh probe), MAGL band; conditions: for IC50: read-out: MAGL IC50 (μM) (human); for IC50 / MAGL % inh. 1 μM (human): human prefrontal cortex membrane fractions
Procedure: (§1) Biological Evaluation In Vitro Competitive Activity-Based Protein Profiling.
(§2) Proteomes (mouse brain membrane fraction for mouse assays; human prefrontal cortex membrane fractions for human assays) (50 mL, 1.0 mg/mL total protein concentration) were preincubated with varying concentrations of inhibitors at 37° C. After 30 min, FP-Rh (1.0 mL, 50 mM in DMSO) was added and the mixture was incubated for another 30 min at 37° C. Reactions were quenched with SDS loading buffer (15 μL-4×) and run on SDS-PAGE.

[2] = biological target: FAAH (Homo sapiens (Human), UniProt O00519); assay: In vitro competitive activity-based protein profiling (human prefrontal cortex membrane fractions, FP-Rh probe), FAAH band; conditions: for IC50: read-out: FAAH IC50 (μM) (human); for IC50 / FAAH % inh. 1 μM (human): human prefrontal cortex membrane fractions
Procedure: as §1, §2

[3] = biological target: MAGL (Mus musculus (Mouse), UniProt O35678); assay: In vitro competitive activity-based protein profiling (mouse brain membrane fraction, FP-Rh probe), MAGL band
Procedure: as §1, §2

[4] = biological target: FAAH (Mus musculus (Mouse), UniProt O08914); assay: In vitro competitive activity-based protein profiling (mouse brain membrane fraction, FP-Rh probe), FAAH band
Chain of FAAH (Mus musculus (Mouse), UniProt O08914) (O08914 whole entry): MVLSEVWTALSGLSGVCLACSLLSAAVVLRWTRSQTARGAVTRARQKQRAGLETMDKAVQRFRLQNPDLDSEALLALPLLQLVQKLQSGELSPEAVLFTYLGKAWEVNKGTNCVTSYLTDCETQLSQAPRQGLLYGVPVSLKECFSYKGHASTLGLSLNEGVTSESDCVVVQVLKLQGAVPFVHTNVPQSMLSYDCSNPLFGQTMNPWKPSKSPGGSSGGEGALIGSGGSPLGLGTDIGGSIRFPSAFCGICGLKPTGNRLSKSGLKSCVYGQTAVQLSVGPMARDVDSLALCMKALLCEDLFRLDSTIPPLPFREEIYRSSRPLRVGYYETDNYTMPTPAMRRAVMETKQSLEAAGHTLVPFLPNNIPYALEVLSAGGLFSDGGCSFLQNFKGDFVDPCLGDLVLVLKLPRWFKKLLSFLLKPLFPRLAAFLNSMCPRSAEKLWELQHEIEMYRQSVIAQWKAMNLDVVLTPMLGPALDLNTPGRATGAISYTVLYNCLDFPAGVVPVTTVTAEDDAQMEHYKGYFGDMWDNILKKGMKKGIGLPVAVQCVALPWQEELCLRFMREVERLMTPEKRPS
Procedure: as §1, §2

Chain of FAAH (Homo sapiens (Human), UniProt O00519) (O00519 whole entry): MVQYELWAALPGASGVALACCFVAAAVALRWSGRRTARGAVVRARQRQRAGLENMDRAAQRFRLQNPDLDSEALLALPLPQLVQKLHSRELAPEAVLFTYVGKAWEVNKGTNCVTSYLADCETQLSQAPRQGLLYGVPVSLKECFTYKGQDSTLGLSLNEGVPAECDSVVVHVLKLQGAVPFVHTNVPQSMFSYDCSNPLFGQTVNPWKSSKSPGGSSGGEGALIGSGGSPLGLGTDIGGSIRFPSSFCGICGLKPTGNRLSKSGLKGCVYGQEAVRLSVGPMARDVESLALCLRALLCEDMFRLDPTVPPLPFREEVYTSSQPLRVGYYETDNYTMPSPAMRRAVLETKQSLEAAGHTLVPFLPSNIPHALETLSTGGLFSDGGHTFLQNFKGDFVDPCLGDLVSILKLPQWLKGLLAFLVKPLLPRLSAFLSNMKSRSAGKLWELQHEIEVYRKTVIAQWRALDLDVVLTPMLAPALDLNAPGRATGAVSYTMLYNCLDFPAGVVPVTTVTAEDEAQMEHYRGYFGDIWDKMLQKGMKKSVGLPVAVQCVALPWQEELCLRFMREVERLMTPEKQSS
Chain of MAGL (Homo sapiens (Human), UniProt Q99685) (Q99685 whole entry): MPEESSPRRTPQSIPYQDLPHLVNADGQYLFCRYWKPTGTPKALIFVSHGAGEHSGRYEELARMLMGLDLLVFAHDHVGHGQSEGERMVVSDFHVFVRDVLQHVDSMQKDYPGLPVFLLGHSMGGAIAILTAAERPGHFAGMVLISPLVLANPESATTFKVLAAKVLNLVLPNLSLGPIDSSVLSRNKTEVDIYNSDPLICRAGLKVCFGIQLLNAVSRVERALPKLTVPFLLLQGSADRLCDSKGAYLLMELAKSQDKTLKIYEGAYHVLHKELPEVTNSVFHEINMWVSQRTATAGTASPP
Chain of MAGL (Mus musculus (Mouse), UniProt O35678) (O35678 whole entry): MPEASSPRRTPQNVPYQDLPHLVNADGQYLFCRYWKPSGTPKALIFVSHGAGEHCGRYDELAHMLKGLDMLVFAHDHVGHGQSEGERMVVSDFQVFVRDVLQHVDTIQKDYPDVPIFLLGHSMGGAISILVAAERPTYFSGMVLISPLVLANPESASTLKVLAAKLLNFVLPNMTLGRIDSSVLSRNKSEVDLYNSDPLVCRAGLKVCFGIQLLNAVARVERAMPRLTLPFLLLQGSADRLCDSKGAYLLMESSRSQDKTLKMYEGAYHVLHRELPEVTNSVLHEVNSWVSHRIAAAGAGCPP

CN(Cc1cccc(C(F)(F)F)c1)C1CCN(C(=O)n2ccc(C(N)=O)n2)CC1 [Example 176, 1-(4-(methyl(3-(trifluoromethyl)-benzyl)amino)-piperidine-1-carbonyl)-1H-pyrazole-3-carboxamide]
IC50 [1]: < 0.1 µM | IC50 [2]: < 0.1 µM

NC(=O)c1ccn(C(=O)N2CC3CN(Cc4ccc(N5CCOCC5)cc4C(F)(F)F)CC3C2)n1 (stereo not shown) [Example 17, 1-(5-(4-Morpholino-2-(trifluoromethyl)benzyl)octahydropyrrolo[3,4-c]pyrrole-2-carbonyl)-1H-pyrazole-3-carboxamide]
IC50 [1]: < 0.1 µM | IC50 [2]: < 0.1 µM

NC(=O)c1ccn(C(=O)N2CC3CN(Cc4cccc(C(F)(F)F)c4)CC3C2)n1 (stereo not shown) [Example 208, 1-(5-(3-(trifluoromethyl)-benzyl)-octahydropyrrolo-[3,4-c]pyrrole-2-carbonyl)-1H-pyrazole-3-carboxamide]
IC50 [1]: < 0.1 µM | IC50 [2]: < 0.1 µM

CN(Cc1ccccc1Cl)[C@@H]1C[C@@H]2CN(C(=O)n3ccc(C(N)=O)n3)C[C@@H]2C1 [Example 206, 1-(cis-5-((2-chlorobenzyl)-(methyl)amino)-octahydrocyclopenta-[c]pyrrole-2-carbonyl)-1H-pyrazole-3-carboxamide]
IC50 [1]: < 0.1 µM | IC50 [2]: < 0.1 µM

O=C(O)c1nn(C(=O)N2CCC3(CCCN3Cc3cc4ccc(C(F)(F)F)cc4s3)CC2)cc1Cl [Example 139, 4-chloro-1-(1-((6-(trifluoromethyl)-benzo[b]thiophen-2-yl)methyl)-1,8-diazaspiro[4.5]-decane-8-carbonyl)-1H-pyrazole-3-carboxylic acid]
IC50 [1]: < 0.1 µM | IC50 [2]: < 0.1 µM

O=C(O)c1ccn(C(=O)N2C[C@H]3C[C@H](OCc4cccc(Oc5ccc(Cl)cc5)c4)C[C@H]3C2)n1 [Example 158, 1-(trans-5-((3-(4-chlorophenoxy)-benzyl)oxy)-octahydrocyclopenta-[c]pyrrole-2-carbonyl)-1H-pyrazole-3-carboxylic acid]
IC50 [1]: < 0.1 µM | IC50 [2]: < 0.1 µM

O=C(O)c1ccn(C(=O)N2CCC3(CCN(Cc4cc(F)cc(C(F)(F)F)c4)C3)CC2)n1 [Example 152, 1-(2-(3-fluoro-5-(trifluoromethyl)-benzyl)-2,8-diazaspiro[4.5]-decane-8-carbonyl)-1H-pyrazole-3-carboxylic acid]
MAGL % inh. 1 μM (human) [1]: A (% inhibition is greater than or equal to 75%) | MAGL % inh. 1 μM (mouse) [3]: A (% inhibition is greater than or equal to 75%) | FAAH % inh. 1 μM (human) [2]: D (% inhibition is greater than or equal to 0% and less than 25%) | FAAH % inh. 1 μM (mouse) [4]: B (% inhibition is greater than or equal to 50% and less than 75%)

CN(Cc1ccc(C(F)(F)F)cc1)[C@@H]1C[C@@H]2CN(C(=O)n3ccc(C(N)=O)n3)C[C@@H]2C1 [Example 205, 1-(cis-5-(methyl(4-(trifluoromethyl)-benzyl)amino)-octahydrocyclopenta-[c]pyrrole-2-carbonyl)-1H-pyrazole-3-carboxamide]
IC50 [1]: < 0.1 µM | IC50 [2]: < 0.1 µM

O=C(O)c1ccn(C(=O)N2CCN(Cc3cc(F)cc(Oc4ccc(Cl)cc4)c3)CC2)n1 [Example 161, 1-(4-(3-(4-chlorophenoxy)-5-fluorobenzyl)-piperazine-1-carbonyl)-1H-pyrazole-3-carboxylic acid]
IC50 [1]: < 0.1 µM | IC50 [2]: < 0.1 µM

NC(=O)c1ccn(C(=O)N2CCC3(CCN(Cc4ccc(N5CCCC5)cc4C(F)(F)F)C3)CC2)n1 [Example 195, 1-(2-(4-(pyrrolidin-1-yl)-2-(trifluoromethyl)-benzyl)-2,8-diazaspiro[4.5]-decane-8-carbonyl)-1H-pyrazole-3-carboxamide]
IC50 [1]: < 0.1 µM | IC50 [2]: < 0.1 µM

NC(=O)c1ccn(C(=O)N2CCN(Cc3cccc(Oc4ccccc4)c3)CC2)n1 [Example 198, 1-(4-(3-phenoxybenzyl)-piperazine-1-carbonyl)-1H-pyrazole-3-carboxamide]
inhibition at 1 µM ([1]; read-out: MAGL % inh. 1 μM (human)): > 75% | inhibition at 1 µM ([2]; read-out: FAAH % inh. 1 μM (human)): > 75%

Cc1cc(CO[C@H]2C[C@@H]3CN(C(=O)n4ccc(C(=O)O)n4)C[C@@H]3C2)ccc1C(F)(F)F [Example 172, 1-(trans-5-((3-methyl-4-(trifluoromethyl)-benyl)oxy)-octahydrocyclopenta-[c]pyrrole-2-carbonyl)-1H-pyrazole-3-carboxylic acid]
IC50 [1]: < 0.1 µM | IC50 [2]: < 0.1 µM

CN(Cc1ccccc1Cl)[C@H]1C[C@@H]2CN(C(=O)n3cc(Cl)c(C(N)=O)n3)C[C@@H]2C1 [Example 128, 4-chloro-1-(trans-5-((2-chlorobenzyl)-(methyl)amino)-octahydrocyclopenta-[c]pyrrole-2-carbonyl)-1H-pyrazole-3-carboxamide]
IC50 [1]: < 0.1 µM | IC50 [2]: < 0.1 µM

CN(Cc1ccccc1C(F)(F)F)[C@@H]1C[C@@H]2CN(C(=O)n3ccc(C(N)=O)n3)C[C@@H]2C1 [Example 204, 1-(cis-5-(methyl(2-(trifluoromethyl)-benzyl)amino)-octahydrocyclopenta-[c]pyrrole-2-carbonyl)-1H-pyrazole-3-carboxamide]
IC50 [1]: < 0.1 µM | IC50 [2]: < 0.1 µM

NC(=O)c1ccn(C(=O)N2CCC3(CCN(Cc4cc(Cl)cc(C(F)(F)F)c4)C3)CC2)n1 [Example 196, 1-(2-(3-chloro-5-(trifluoromethyl)-benzyl)-2,8-diazaspiro[4.5]-decane-8-carbonyl)-1H-pyrazole-3-carboxamide]
IC50 [1]: < 0.1 µM | IC50 [2]: < 0.1 µM

O=C(O)c1ccn(C(=O)N2C[C@H]3C[C@H](Oc4cccc(-c5ccccc5)c4)C[C@H]3C2)n1 [Example 125, 1-(trans-5-([1,1′-biphenyl]-3-yloxy)-octahydrocyclopenta-[c]pyrrole-2-carbonyl)-1H-pyrazole-3-carboxylic acid]
IC50 [1]: < 0.1 µM | IC50 [2]: < 0.1 µM

NC(=O)c1ccn(C(=O)N2CC3CN(Cc4cc(Cl)cc(C(F)(F)F)c4)CC3C2)n1 (stereo not shown) [Example 201, 1-(5-(3-chloro-5-(trifluoromethyl)-benzyl)-octahydropyrrolo-[3,4-c]pyrrole-2-carbonyl)-1H-pyrazole-3-carboxamide]
IC50 [1]: < 0.1 µM | IC50 [2]: < 0.1 µM

C#Cc1ccc(CN2CCN(C(=O)n3ccc(C(N)=O)n3)CC2)cc1 [Example 144, 1-(4-(4-ethynylbenzyl)-piperazine-1-carbonyl)-1H-pyrazole-3-carboxamide]
IC50 [1]: < 0.1 µM | IC50 [2]: < 0.1 µM

O=C(O)c1nn(C(=O)N2CCN(Cc3cccc(Oc4ccc(Cl)cc4)c3)CC2)cc1Cl [Example 132, 4-chloro-1-(4-(3-(4-chlorophenoxy)-benzyl)-piperazine-1-carbonyl)-1H-pyrazole-3-carboxylic acid]
IC50 [1]: < 0.1 µM | IC50 [2]: < 0.1 µM

O=C(O)c1ccn(C(=O)N2CCC3(CCN(Cc4cccc(OC(F)(F)F)c4)C3)CC2)n1 [Example 153, 1-(2-(3-(trifluoromethoxy)-benzyl)-2,8-diazaspiro[4.5]-decane-8-carbonyl)-1H-pyrazole-3-carboxylic acid]
MAGL % inh. 1 μM (human) [1]: A (% inhibition is greater than or equal to 75%) | MAGL % inh. 1 μM (mouse) [3]: A (% inhibition is greater than or equal to 75%) | FAAH % inh. 1 μM (human) [2]: D (% inhibition is greater than or equal to 0% and less than 25%) | FAAH % inh. 1 μM (mouse) [4]: C (% inhibition is greater than or equal to 25% and less than 50%)

CN(Cc1ccccc1Cl)[C@H]1C[C@@H]2CN(C(=O)n3ccc(C(N)=O)n3)C[C@@H]2C1 [Example 200, 1-(trans-5-((2-chlorobenzyl)-(methyl)amino)-octahydrocyclopenta-[c]pyrrole-2-carbonyl)-1H-pyrazole-3-carboxamide]
IC50 [1]: < 0.1 µM | IC50 [2]: < 0.1 µM

NC(=O)c1ccn(C(=O)N2CC3CN(Cc4cc(Cl)ccc4Cl)CC3C2)n1 (stereo not shown) [Example 202, 1-(5-(2,5-dichlorobenzyl)-octahydropyrrolo-[3,4-c]pyrrole-2-carbonyl)-1H-pyrazole-3-carboxamide]
IC50 [1]: < 0.1 µM | IC50 [2]: < 0.1 µM

NC(=O)c1ccn(C(=O)N2CCC3(CCN(Cc4cc(Cl)ccc4C(F)(F)F)C3)CC2)n1 [Example 99, 1-(2-(5-chloro-2-(trifluoromethyl)-benzyl)-2,8-diazaspiro[4.5]-decane-8-carbonyl)-1H-pyrazole-3-carboxamide]
IC50 [1]: < 0.1 µM | IC50 [2]: < 0.1 µM

NC(=O)c1ccn(C(=O)N2CCN(Cc3ccc(C(F)(F)F)cc3N3CCCC3)CC2)n1 [Example 173, 1-(4-(2-(pyrrolidin-1-yl)-4-(trifluoromethyl)-benzyl)piperazine-1-carbonyl)-1H-pyrazole-3-carboxamide]
IC50 [1]: < 0.1 µM | IC50 [2]: < 0.1 µM

O=C(O)c1ccn(C(=O)N2C[C@H]3C[C@H](OCc4ccc(Oc5ccc(Cl)cc5)cc4)C[C@H]3C2)n1 [Example 55, 1-(trans-5-((4-(4-chlorophenoxy)-benzyl)oxy)-octahydrocyclopenta-[c]pyrrole-2-carbonyl)-1H-pyrazole-3-carboxylic acid]
IC50 [1]: < 0.1 µM | IC50 [2]: < 0.1 µM

O=C(O)c1nn(C(=O)N2CC3CN(Cc4cc(Cl)cc(C(F)(F)F)c4)CC3C2)cc1Cl (stereo not shown) [Example 357, 4-chloro-1-(5-(3-chloro-5-(trifluoromethyl)-benzyl)-octahydropyrrolo-[3,4-c]pyrrole-2-carbonyl)-1H-pyrazole-3-carboxylic acid]
IC50 [1]: < 0.1 µM
